According to patent publication US20240002391A1, “4-ALKOXYPYRROLO[2,1-F][1,2,4]TRIAZINES AND PREPARATION AND USES THEREOF” (BioSplice Therapeutics, Inc., priority 2022, published 2024):

Target: recombinant DYRK1A kinase (Homo sapiens (Human), UniProt Q13627)
Assay: DYRK1A kinase assay (Ser/Thr 18 peptide Z-lyte FRET)
Assay type: biochemical
Details: DYRK1A kinase activity, Z-lyte Ser/Thr 18 peptide, 15 μM ATP; method text calls the value IC50; read-out: EC50 (the source's name)
How it was run: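 Steps: combine 0.25 μg/mL kinase, 15 μM ATP and 4 μM peptide with test compound; incubate 1 h at room temperature; add diluted development reagent for another hour; read coumarin and fluorescein emission at Ex 400. The emission ratio yields percent phosphorylation, from which IC50 is derived.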

IC50 [nM]	Structure (SMILES)
7.5	COc1nc(N[C@H]2C[C@](C)(N)C2)nn2ccc(-c3ccc4nnn(C)c4c3)c12 [Compound 203, trans-N^1-(4-methoxy-5-(1-methyl-1H-benzo[d][1,2,3]triazol-6-yl)pyrrolo[2,1-f][1,2,4]triazin-2-yl)-3-methylcyclobutane-1,3-diamine]
5.2	COCCO[C@H]1CC[C@H](Nc2nc(OC)c3c(-c4ccc5nccn5c4)ccn3n2)CC1 [Compound 52, 5-(Imidazo[1,2-a]pyridin-6-yl)-4-methoxy-N-(trans-4-(2-methoxyethoxy)cyclohexyl)pyrrolo[2,1-f][1,2,4]triazin-2-amine]
29.6	COc1nc(NC2CCC3(CC2)CN(C(=O)OC(C)(C)C)C3)nn2ccc(-c3ccc4ncnn4c3)c12 [Compound 197, tert-Butyl 7-((5-([1,2,4]triazolo[1,5-a]pyridin-6-yl)-4-methoxypyrrolo[2,1-f][1,2,4]triazin-2-yl)amino)-2-azaspiro[3.5]nonane-2-carboxylate]
1.1	COc1nc(N[C@H]2CC[C@@](C)(O)CC2)nn2ccc(-c3ccc4nnn(CC(F)F)c4c3)c12 [Compound 724, (1s,4s)-4-((5-(1-(2,2-Difluoroethyl)-1H-benzo[d][1,2,3]triazol-6-yl)-4-methoxypyrrolo[2,1-f][1,2,4]triazin-2-yl)amino)-1-methylcyclohexan-1-ol]
34.4	COCCO[C@H]1CC[C@H](Nc2nc(OC)c3c(-c4ccn5nccc5c4)ccn3n2)CC1 [Compound 16, 4-Methoxy-N-(trans-4-(2-methoxyethoxy)cyclohexyl)-5-(pyrazolo[1,5-a]pyridin-5-yl)pyrrolo[2,1-f][1,2,4]triazin-2-amine]
7.8	COc1nc(N[C@H]2CCN(C3(C#N)COC3)C[C@H]2F)nn2ccc(-c3ccc4nnn(C(C)C)c4c3)c12 [Compound 690, 3-((3R,4S)-3-fluoro-4-((5-(1-isopropyl-1H-benzo[d][1,2,3]triazol-6-yl)-4-methoxypyrrolo[2,1-f][1,2,4]triazin-2-yl)amino)piperidin-1-yl)oxetane-3-carbonitrile]
10.7	COc1nc(N[C@@H]2CCN(C3CCC3)CC2(F)F)nn2ccc(-c3ccc4nc(C)n(CC(F)F)c4c3)c12 [Compound 140, (R)—N-(1-Cyclobutyl-3,3-difluoropiperidin-4-yl)-5-(1-(2,2-difluoroethyl)-2-methyl-1H-benzo[d]imidazol-6-yl)-4-methoxypyrrolo[2,1-f][1,2,4]triazin-2-amine]
0.9	COc1nc(N[C@H]2CCN(C(C)=O)C[C@H]2F)nn2ccc(-c3cc(F)c4nc(C)n(C(C)C)c4c3)c12 [Compound 544, 1-((3R,4S)-3-Fluoro-4-((5-(4-fluoro-1-isopropyl-2-methyl-1H-benzo[d]imidazol-6-yl)-4-methoxypyrrolo[2,1-f][1,2,4]triazin-2-yl)amino)piperidin-1-yl)ethan-1-one]
14.1	COc1nc(N[C@H]2CC[C@@](C)(O)CC2)nn2ccc(-c3ccn4nccc4c3)c12 [Compound 19, cis-4-((4-Methoxy-5-(pyrazolo[1,5-a]pyridin-5-yl)pyrrolo[2,1-f][1,2,4]triazin-2-yl)amino)-1-methylcyclohexan-1-ol]
2.3	[2H]C([2H])([2H])Oc1nc(N[C@H]2CC[C@](C)(O)CC2)nn2ccc(-c3ccc4nccnc4c3)c12 [Compound 348, trans-4-((4-(Methoxy-d3)-5-(quinoxalin-6-yl)pyrrolo[2,1-f][1,2,4]triazin-2-yl)amino)-1-methylcyclohexan-1-ol]
6.6	COc1nc(N[C@H]2C[C@@](C)(O)C2)nn2ccc(-c3cc4cnccc4[nH]3)c12 [Compound 281, cis-3-((4-Methoxy-5-(1H-pyrrolo[3,2-c]pyridin-2-yl)pyrrolo[2,1-f][1,2,4]triazin-2-yl)amino)-1-methylcyclobutan-1-ol]
0.5	COc1nc(N[C@H]2C[C@](C)(O)C2)nn2ccc(-c3ccc4nnn(CC(F)F)c4c3)c12 [Compound 711, (1r,3r)-3-((5-(1-(2,2-Difluoroethyl)-1H-benzo[d][1,2,3]triazol-6-yl)-4-methoxypyrrolo[2,1-f][1,2,4]triazin-2-yl)amino)-1-methylcyclobutan-1-ol]
